Measurements from publication PMC4029899 (Clinical pharmacology and therapeutics, 2014).
Read-outs that look alike come from different tables or passages of the source. Marks after values point to notes of the source that are not given here.

What was measured:
CYP2D6 [1] = target: T1, CYP2D6 (Homo sapiens, UniProt P10635); experiment: Clinical cocktail DDI study with fluoxetine, dextromethorphan probe; type: in vivo; details: for AUC(0-inf): both, human, plasma, probe dextromethorphan
[2] = cited from earlier work
CYP3A4 [3] = target: T2, CYP3A4 (Homo sapiens, UniProt P08684); details: parameter used for simulations; ref SimCYP compound library; cited from earlier work
CYP3A4 [4] = target: T2, CYP3A4; type: in vivo; details: for Cmax / half-life: both, human, plasma, oral; for Cmax: observed Cmax; for half-life: probe midazolam
[5] = cited from earlier work; remark: listed apart in the source
[6] = cited from earlier work; for CLIV: after 1mg IV dosing in CYP3A5 nonexpressors; for CLpo: calculated from reported CLiv and bioavailability
[7] = Drug specific pharmacokinetic parameters used for simulations; type: in vivo, human; details: estimated to achieve desired distribution kinetics
CYP3A4 [8] = target: T2, CYP3A4; details: multiple dose fluoxetine; cited from earlier work
CYP2C19 [9] = experiment: Clinical cocktail DDI study with fluoxetine, omeprazole probe; type: in vivo, human; details: human, plasma, oral
CYP2C19 [10] = target: T3, CYP2C19 (Homo sapiens, UniProt P33261); experiment: as above; type: in vivo; details: for Cmax / half-life: both, human, plasma, oral; for half-life: probe omeprazole
Caco-2 = details: ADAM model input; cited from earlier work
CYP2C19 [11] = target: T3, CYP2C19; details: from AUC ratio in CYP2C19 poor and extensive metabolizers; cited from earlier work
CYP1A2 = target: T4, CYP1A2 (Homo sapiens, UniProt P05177); experiment: Clinical cocktail DDI study with fluoxetine, caffeine probe; type: in vivo; details: for AUC(0-inf): both, human, plasma
T4 sequence (P05177 1-516): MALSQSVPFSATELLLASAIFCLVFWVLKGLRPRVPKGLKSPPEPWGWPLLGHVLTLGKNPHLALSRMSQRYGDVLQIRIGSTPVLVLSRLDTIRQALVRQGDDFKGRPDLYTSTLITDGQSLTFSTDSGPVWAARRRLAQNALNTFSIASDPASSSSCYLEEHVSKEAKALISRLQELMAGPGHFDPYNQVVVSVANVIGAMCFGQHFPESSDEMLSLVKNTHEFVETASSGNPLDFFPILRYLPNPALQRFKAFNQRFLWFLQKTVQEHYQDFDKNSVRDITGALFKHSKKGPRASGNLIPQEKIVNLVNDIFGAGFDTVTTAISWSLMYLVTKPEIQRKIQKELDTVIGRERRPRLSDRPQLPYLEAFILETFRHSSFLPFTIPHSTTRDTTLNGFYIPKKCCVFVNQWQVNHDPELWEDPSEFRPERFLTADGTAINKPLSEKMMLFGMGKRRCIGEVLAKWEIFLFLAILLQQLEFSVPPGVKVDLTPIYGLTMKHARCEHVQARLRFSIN

CYP2D6 [12] = target: T1, CYP2D6; details: desipramine with fluoxetine; cited from earlier work
CYP3A4 [13] = details: cited from earlier work
CYP2C19 [14] = target: T3, CYP2C19; details: lansoprazole with fluoxetine; cited from earlier work
[15] = parameter used for simulations, ref SimCYP compound library

T1 sequence (P10635 whole entry): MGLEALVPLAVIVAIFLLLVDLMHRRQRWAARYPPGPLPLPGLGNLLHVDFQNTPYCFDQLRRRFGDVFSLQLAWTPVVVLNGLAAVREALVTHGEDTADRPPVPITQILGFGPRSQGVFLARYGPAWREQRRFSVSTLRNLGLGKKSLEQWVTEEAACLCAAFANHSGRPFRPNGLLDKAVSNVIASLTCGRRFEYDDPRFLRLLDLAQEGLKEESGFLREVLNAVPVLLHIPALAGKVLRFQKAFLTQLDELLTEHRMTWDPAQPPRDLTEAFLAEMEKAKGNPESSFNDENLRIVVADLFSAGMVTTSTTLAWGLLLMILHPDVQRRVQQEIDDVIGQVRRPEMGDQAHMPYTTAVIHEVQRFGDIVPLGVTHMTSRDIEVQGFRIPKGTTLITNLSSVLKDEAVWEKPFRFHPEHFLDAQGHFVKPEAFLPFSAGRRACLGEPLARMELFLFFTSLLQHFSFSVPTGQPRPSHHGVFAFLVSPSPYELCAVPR
T2 sequence (P08684 whole entry): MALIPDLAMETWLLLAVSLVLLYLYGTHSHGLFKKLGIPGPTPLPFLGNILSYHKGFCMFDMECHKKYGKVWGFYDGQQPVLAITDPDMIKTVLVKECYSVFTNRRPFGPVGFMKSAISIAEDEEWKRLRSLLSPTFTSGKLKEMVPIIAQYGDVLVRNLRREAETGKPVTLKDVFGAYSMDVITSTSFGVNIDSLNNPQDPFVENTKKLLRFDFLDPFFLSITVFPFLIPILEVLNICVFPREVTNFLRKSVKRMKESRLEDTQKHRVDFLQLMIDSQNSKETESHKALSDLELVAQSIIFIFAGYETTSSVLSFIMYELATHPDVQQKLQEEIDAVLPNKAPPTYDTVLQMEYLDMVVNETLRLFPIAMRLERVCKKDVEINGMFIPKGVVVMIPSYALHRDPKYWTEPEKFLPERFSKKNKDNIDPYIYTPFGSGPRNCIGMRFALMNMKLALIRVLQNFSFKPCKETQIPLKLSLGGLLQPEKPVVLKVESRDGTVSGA
T3 sequence (P33261 whole entry): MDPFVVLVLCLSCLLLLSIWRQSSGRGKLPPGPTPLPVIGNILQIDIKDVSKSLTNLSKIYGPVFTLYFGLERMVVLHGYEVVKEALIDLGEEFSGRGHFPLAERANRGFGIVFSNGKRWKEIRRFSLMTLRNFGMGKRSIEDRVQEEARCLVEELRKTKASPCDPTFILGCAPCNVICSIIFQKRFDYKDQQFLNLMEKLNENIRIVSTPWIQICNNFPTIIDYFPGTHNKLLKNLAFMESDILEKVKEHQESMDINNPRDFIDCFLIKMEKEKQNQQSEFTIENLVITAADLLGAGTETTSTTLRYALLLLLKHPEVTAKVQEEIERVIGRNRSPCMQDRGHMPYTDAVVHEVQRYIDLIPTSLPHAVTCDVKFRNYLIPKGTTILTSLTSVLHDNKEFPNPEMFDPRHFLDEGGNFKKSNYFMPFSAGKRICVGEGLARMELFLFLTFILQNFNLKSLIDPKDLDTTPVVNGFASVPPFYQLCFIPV

CN1CC[C@@]23CCCC[C@@H]2[C@@H]1Cc1ccc(O)cc13 [Dextrorphan]
decrease in dextrorphan/dextromethorphan Um/Up (CYP2D6 [1]; after fluoxetine): 99%
decrease in plasma dextrorphan/dextromethorphan AUCm/AUCp (CYP2D6 [1]; after fluoxetine): 98%
change in AUC0-∞ (CYP2D6 [1]; after fluoxetine, P>0.05): unchanged
AUC(0-inf) (CYP2D6 [1]; oral): 0.028 ± 0.017 µM·h
AUC(0-inf) (CYP2D6 [1]; po, 30 mg): 0.029 ± 0.018 µM·h

Cc1ncc2n1-c1ccc(Cl)cc1C(c1ccccc1F)=NC2 [Midazolam]
pKa 1 [2, 15]: 10.95
fm CYP3A4 (CYP3A4 [3]): 0.94
Cmax (CYP3A4 [4]; 2 mg, control day): 17 ± 16 nM
half-life (CYP3A4 [4]; 2 mg): 2.2 h
Cmax (CYP3A4 [4]; day 12 of fluoxetine): 14.5 ± 10 nM
half-life (CYP3A4 [4]): 2.3 h
change in AUC0-∞, oral CL and t1/2 (CYP3A4 [4]; following 12 days of fluoxetine, p>0.05): unchanged
effect on AUC (CYP3A4 [4]; two week dosing of fluoxetine): unaffected
B/P ([5]; previously reported): 0.86 ^i
CLIV [6]: 33 ^k L/hr
CLIV ([6]; listed as midazolam): 33 L/h
Vss ([6]; after IV dosing in CYP3A5 nonexpressors): 1.27 ^k L/kg
fa [6, 15]: 0.88
fg [6, 15]: 1
ka ([6]; previously estimated): 2.5 ^j hr^−1
Vsac [7]: 0.75 L/kg
kin [7]: 11 h⁻¹
kout [7]: 7.5 h⁻¹
effect on AUC (CYP3A4 [8]): no effect

COc1ccc2[nH]c([S+]([O-])Cc3ncc(C)c(OC)c3C)nc2c1 (stereo not drawn) [Omeprazole]
intrinsic solubility ([2]; ADAM model input): 250 µg/mL
fm CYP3A4 (CYP3A4 [3]): 0.07
fu [5, 15]: 0.043
concentration at 12 h (CYP2C19 [9]): 34 nM
decrease in oral CL (CYP2C19 [10]; after 12 days of fluoxetine): 86%
change in t1/2 (CYP2C19 [10]; after fluoxetine): unchanged
increase in AUC0-∞ compared to control (CYP2C19 [10]; after fluoxetine dosing): 7.1 fold
Cmax (CYP2C19 [10]): 2500 ± 1400 nM
Cmax (CYP2C19 [10]; 20 mg): 660 ± 380 nM
half-life (CYP2C19 [10]; 20 mg): 1.2 ± 0.5 h
half-life (CYP2C19 [10]): 1.3 ± 0.1 h
omeprazole concentrations, other subjects (CYP2C19 [10]; fluoxetine administration day): 2800 ± 1200 nM
omeprazole concentrations, excluded outlier subject (CYP2C19 [10]; fluoxetine administration day, except 12-hour sample): < 4 nM
CLpo [6]: 80 ^b L/hr
CLpo ([6]; listed as omeprazole): 80 L/h
CLr [6, 15]: 0.037 L/h
Vss ([6]; previously reported): 0.24 ^b L/kg
Vsac [7]: 0.1 L/kg
Vsac Q [7]: 10 L/h
Caco-2 permeability (Caco-2): 26.2*10^−06 cm/s
fm CYP2C19 (CYP2C19 [11]): 0.93 ^e

Cc1nnc2n1-c1ccc(Cl)cc1C(c1ccccc1)=NC2 [alprazolam]
increase in AUC (CYP3A4 [8]): 1.3 fold

Cn1c(=O)c2c(ncn2C)n(C)c1=O [caffeine]
AUC(0-inf) (CYP1A2; oral): 43 ± 15 µM·h
AUC(0-inf) (CYP1A2; po, 100 mg): 43 ± 22 µM·h
effect of fluoxetine on AUC0-∞, oral CL or t1/2 (CYP1A2; p>0.05): did not affect

NC(=O)N1c2ccccc2C=Cc2ccccc21 [carbamazepine]
increase in AUC (CYP3A4 [8]): 1.3 fold

CNCCCN1c2ccccc2CCc2ccccc21 [desipramine]
increase in AUC (CYP2D6 [12]): 7.8 fold

CNCCC(Oc1ccc(C(F)(F)F)cc1)c1ccccc1 (stereo not drawn) [fluoxetine]
maximum induction of CYP3A4 in vitro (CYP3A4 [13]): 2 fold
effect on CYP2D6 activity in vivo (CYP2D6 [1]; multiple dose fluoxetine): strongly inhibits
effect on CYP3A4 activity in vivo (CYP3A4 [4]; multiple dose fluoxetine): without affecting
effect on CYP2C19 activity in vivo (CYP2C19 [10]; multiple dose fluoxetine): strongly inhibits
effect on CYP1A2 activity in vivo (CYP1A2; multiple dose fluoxetine): without affecting

Cc1c(OCC(F)(F)F)ccnc1C[S+]([O-])c1nc2ccccc2[nH]1 (stereo not drawn) [lansoprazole]
increase in AUC (CYP2C19 [14]): 2.9 fold
